From US5681826A, “Saccharide composition with reduced reducibility, and preparation and uses thereof” (Kabushiki Kaisha Hayashibara Seibutsu Kagaku Kenkyujo, priority 1994, dated 1997)
“Also recorded” adds a separate entry of the source.

Key:
[1] = system: trehalose derived from pig kidney; experiment: Hydrolysis of trehalose by enzyme derived from pig kidney; format: biochemical; conditions: pH 5.7, 37°C., 18 hours (Experiment 7)
Experimental: To purify trehalose in each reaction mixture, it was subjected to column chromatography using a column packed with "XT-1016", a strong-acid cation exchange resin in Na^+ -form commercialized by Tokyo Organic Chemical Industries, Ltd., Tokyo, Japan, followed by recovering fractions containing 97% or more of trehalose. The fractions were pooled and concentrated into an about 65% solution which was then allowed to stand at 25° C. for 2 days to crystallize trehalose into hydrous crystalline trehalose, followed by separating and drying it in vacuo to obtain a high-purity trehalose preparation with a purity of 99% or more, d.s.b. The yields of trehalose from glucosyltrehalose, maltosyltrehalose, maltotriosyltrehalose, maltotetraosyltrehalose and maltopentaosyltrehalose used as a substrate were respectively 9.5%, 14.9%, 16.0%, 18.5% and 17.7%, d.s.b. The high-purity trehalose preparations and a commercially available trehalose specimen as a standard were studied for melting point, heat of fusion, specific rotation, infrared absorption spectrum, powdery X-ray diffraction pattern, and readiness of hydrolysis by a […] derived from pig kidney, commercialized by Sigma Chemical Co., St. Louise, USA.

[2] = Maillard reaction with glycine, absorbance at 480 nm; format: physicochemical
Experimental: A solution, containing one % glycine and 10% of a saccharide preparation PI, P II, P III, P IV or P V in Experiment 4 and 50 mM phosphate buffer (pH 7.0), was kept at 100° C. for 90 min, followed by cooling the resultant solution, and determining for absorbance at a wave length of 480 nm in a 1-cm cell. As a control, maltotriose, maltotetraose, maltopentaose, maltohexaose and maltoheptaose, as a material for the saccharide preparations, were similarly treated as above, and measured for absorbance at a wave length of 480 nm.
A solution, containing one % of glycine, 10% of a high-purity trehalose preparation with a purity of 99.5%, d.s.b., obtained by the method in Experiment 17, and 50 mM phosphate buffer (pH 7.0), was kept at 100° C. for 90 min, followed by cooling the resultant solution and determining the absorbance at a wave length of 480 nm in a 1-cm cell. As a control, glucose and maltose were similarly treated as above, and the resultants were determined for absorbance at a wave length of 480 nm.

[3] = Utilization test in vivo, oral administration to healthy male volunteers; parameters: species or system human; conditions: 30 g oral
Experimental: In accordance with the method as reported by H. Atsuji et al. in "Rinsho-Eiyo", Vol.41, No.2, pp.200-208 (1972), 30 g of a high-purity trehalose preparation with a purity of 99.5%, d.s.b., obtained by the method in Experiment 17 was dissolved in water into a 20 w/v % aqueous solution which was then orally administered to 6 healthy male volunteers. The volunteers were collected their blood at a prescribed time interval, and each collected blood was assayed for blood sugar- and insulin-levels. As a control Glucose was used.

Question: Which “Hydrolysis to glucose by pig kidney enzyme” value [1] does the source give for `OC[C@H]1O[C@H](O[C@H]2O[C@H](CO)[C@@H](O)[C@H](O)[C@H]2O)[C@H](O)[C@@H](O)[C@@H]1O` [Trehalose, α,α-trehalose] here?
Answer: hydrolyzed by trehalose into glucose molecules; also recorded: decomposed into glucose molecules

Question: What about the “Coloration degree relative to glucose or maltose” value [2] of the same molecule?
Answer: 0.4-0.6%

Question: What about the “Maillard reaction” value [2] of the same molecule?
Answer: substantially free from the maillard reaction

Question: What about the “Coloration degree (480 nm)” value ([2]; one % glycine, 10% saccharide, pH 7.0, 100°C., 90 min, 1-cm cell) of the same molecule?
Answer: 0.006

Question: What about the “Time of maximum blood sugar level” value ([3]; 20 w/v % aqueous solution) of the same molecule?
Answer: 0.5 to 1 h

Question: What about the “Time of maximum insulin level” value ([3]; 20 w/v % aqueous solution) of the same molecule?
Answer: 0.5 to 1 h

Question: What about the “Utilization by the body” value ([3]; control glucose) of the same molecule?
Answer: readily assimilated, absorbed, metabolized and utilized by the body as an energy source
